According to patent EP1129187B1, “NEW FAMILY OF MAMMALIAN POTASSIUM CHANNELS, THEIR CLONING AND THEIR USE, ESPECIALLY FOR THE SCREENING OF DRUGS” (CENTRE NATIONAL DE LA RECHERCHE SCIENTIFIQUE (CNRS), priority 1998, dated 2000):
Like-named read-outs stand apart in the source and are kept apart here.

Legend:
[1] = biological target: TWIK-1 (Tandem of P domains in a Weak Inward rectifying K+ channel) (human); experiment: cell-based or functional assay
[2] = biological target: T1, human TWIK-1 K+ channel, SEQ ID NO: 2 (Homo sapiens, UniProt O00180); experiment: TWIK-1 K+ currents, two-electrode voltage clamp in Xenopus oocytes injected with TWIK-1 cRNA; format: cell-based
T1 construct: expressed in transfected cells; host or cells: Xenopus laevis oocytes injected with cRNA transcribed from pEXO-TWIK-1
T1 sequence (O00180 1-336): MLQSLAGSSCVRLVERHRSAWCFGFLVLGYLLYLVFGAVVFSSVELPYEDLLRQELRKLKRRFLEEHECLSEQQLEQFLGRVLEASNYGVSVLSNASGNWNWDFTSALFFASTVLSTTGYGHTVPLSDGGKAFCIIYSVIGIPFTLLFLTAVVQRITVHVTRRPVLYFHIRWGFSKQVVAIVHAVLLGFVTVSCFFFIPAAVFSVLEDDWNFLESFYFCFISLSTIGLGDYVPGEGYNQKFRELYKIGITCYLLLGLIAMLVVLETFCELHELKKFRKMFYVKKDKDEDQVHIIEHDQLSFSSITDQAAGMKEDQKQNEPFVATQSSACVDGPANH
Experimental: For the functional study, the coding sequence of TWIK-1 was inserted between the noncoding sequences 5' and 3' of Xenopus globin in the vector pEXO (Lingueglia, E. et al., 1993, J. Biol. Chem., 269, 13736-13739). A complementary RNA (cRNA) was transcribed of this construction and injected in the oocytes of X laevis. In a 0.3ml perfusion chamber, a single oocyte was impaled on two standard glass microelectrodes (0.5 - 2.0 MW) charged with 3 M KCI and maintained under voltage-clamp with a Dagan TEV200 amplifier. The bath solution contained 98 mM KCl,1.8 raM CaCl2 […] and 5 mM HEPES at pH 7.4 with KOH. Stimulation of the preparation, data acquisition and analyses were carried out with the pClamp program (Axon Instruments) USA3.
Intracellular acidification of the oocytes was produced using two methods: • superfusion with a solution enriched in CO2 which produces acidification by a mechanism involving the bicarbonate transport system (Guillemare, E. et al., 1995, Mol. Pharmacol., 47, 588-594); • treatment with dinitrophenol (DNP), which is a metabolic inhibitor that decouples the H+ gradient in mitochondria and induces internal acidity (Pedersen, P. L. and Carafoli, E., 1997, Trends Biol. Sci., 12, 146-189).
Phosphorylation or dephosphorylation of specific amino acid residues is an important mechanism of regulation of the ionic channels (Levitan, I. B., 1994, Annul Rev. Physiol., 56, 193-212).

[3] = biological target: T2, human TASK-2 K+ channel, SEQ ID NO: 28 (Homo sapiens, UniProt O95279); experiment: TASK-2 currents elicited by voltage pulses to +50 mV, whole cell recording in transfected COS cells; format: cell-based
T2 construct: expressed in transfected cells; host or cells: COS cells transiently transfected with pIREScd8-TASK-2 (DEAE-dextran)
T2 sequence (O95279 1-499): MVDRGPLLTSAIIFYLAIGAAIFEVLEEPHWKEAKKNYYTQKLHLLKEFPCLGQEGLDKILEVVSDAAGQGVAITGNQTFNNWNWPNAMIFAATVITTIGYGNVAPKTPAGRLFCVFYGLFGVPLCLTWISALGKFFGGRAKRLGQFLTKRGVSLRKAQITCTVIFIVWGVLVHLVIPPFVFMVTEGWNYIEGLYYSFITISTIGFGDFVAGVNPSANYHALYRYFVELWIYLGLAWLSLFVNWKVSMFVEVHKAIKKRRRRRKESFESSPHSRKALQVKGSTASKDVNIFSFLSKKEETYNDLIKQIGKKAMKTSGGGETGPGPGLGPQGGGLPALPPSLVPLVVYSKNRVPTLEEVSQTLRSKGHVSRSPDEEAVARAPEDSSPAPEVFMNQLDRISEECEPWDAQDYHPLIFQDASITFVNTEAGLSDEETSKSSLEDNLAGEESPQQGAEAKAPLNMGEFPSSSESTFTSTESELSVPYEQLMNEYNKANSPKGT
Experimental: For patch clamp analyses, a NotI/EcoRI fragment of 3.2 kb was excised from pBS-TASK 2 and subcloned into the pIRES-CD8 vectorto givepIREScdB-TASK-2. ThepIRES-CD8 vector was obtained by replacing the neo^R gene in the original vector pIRESneo (Clontech) by the coding sequence of the T type lymphocyte's surface marker CD8. COS cells were seeded at a density of 20,000 cells per 35 mm dishes 24 h prior to transfection. Cells were then transiently transfected by the classical DEAE-dextian method with 1 µg of prREScdB-TASK-2 plasmid per 35 mm dish. Transiently-transfected cells were visualized 48 h after transfection using the anti-CD8 antibody coated beads method (24). For whole cell recordings, the internal solution contained 150 mM KCI, 3 mM MgCl2, 5 mM EGTA, and 10 mM HEPES at pH 7.2 with KOH, and he external solution 150 mM NaCl, 5 mM KCI, 3 mM MgCl2 1 mM CaCl2, 10 mM HEPES at pH 7.4 with NaOH.
The effects of various pharmacological agents on currents elicited by voltage pulses to +50 mV have been studied in TASK-2-exprcssing. COS cells.

[4] = biological target: human TASK1 K+ channel, SEQ ID NO: 4 (Homo sapiens, UniProt O14649); experiment: TASK1 currents elicited by voltage pulses to +50 mV, two-electrode voltage clamp in Xenopus oocytes; format: cell-based; conditions: for inhibition at 100 µM: read-out: TASK1 currents inhibited
Sequence of human TASK1 K+ channel, SEQ ID NO: 4 (O14649 whole entry, the tested form may be a part): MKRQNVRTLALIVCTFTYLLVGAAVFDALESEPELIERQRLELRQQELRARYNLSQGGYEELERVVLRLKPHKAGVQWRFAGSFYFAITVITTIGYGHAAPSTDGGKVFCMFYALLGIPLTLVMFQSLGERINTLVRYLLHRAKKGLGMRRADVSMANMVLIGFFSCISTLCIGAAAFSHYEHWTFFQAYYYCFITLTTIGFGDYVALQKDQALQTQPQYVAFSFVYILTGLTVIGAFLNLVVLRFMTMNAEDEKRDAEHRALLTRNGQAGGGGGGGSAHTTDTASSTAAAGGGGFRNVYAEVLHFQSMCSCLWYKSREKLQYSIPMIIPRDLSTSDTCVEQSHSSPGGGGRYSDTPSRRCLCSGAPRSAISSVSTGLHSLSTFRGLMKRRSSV
Experimental: For functional studies, TASK1 cRNAs were injected into Xenopus oocytes. This was accomplished by subcloning a 2480 bp SmaI/XhoI fragment from pBS-hT ASK containing 14 bp of 5' UTR, the coding sequence and the entire 3' UTR into the pEXO vector (Lingueglia et al., 1993) to give pEXO-TASK1. Capped-cRNAs were synthesised in vitro from the linearized plasmid by using the T7 RNA polymerase (Stratagene). Xenopus laevis were purchased from CRBM (Montpellier, France). Preparation and cRNA injection of oocytes has been described elsewhere (Guillemare et al., 1992). Oocytes were used for electrophysiological studies 2 to 4 days following injection (20 ng/oocyte). In a 0.3 ml perfusion chamber, a single oocyte was impaled with two standard microelectrodes (1-2.5 Mn resistance) filled with 3 M KCI and maintained under voltage clamp by using a Dagan TEV 200 amplifier, in standard ND96 solution (96 mM NaC1. 2 mM KCI, 1.8 mM CaCI2, 2 mM MgCl2, 5 mM HEPES, pH 7.4 with NaOH). In some experiments, NaCl was substituted with TMA Cl (Tetra Methyl Ammonium Chloride). Stimulation of the preparation, data acquisition, and analysis were performed using pClamp software (Axon instruments, USA). Drugs were applied externally by addition to the superfusate (flow rate: 3 ml/min) or intracellularly injected by using a pressure microinjector (Inject+Matic, Switzedand). All experiments were performed at room temperature (21-22 °C).
Figure 12A presents the I-V relationships of the current in K^+-rich solutions ranging from 2 mM to 98 mM. […] The theoretical I-V relationships in various [K^+]out calculated according to the Goldman-Hodgkin-Katz current equation are shown in Figure 12D. […] The effect of various pharmacological agents on currents elicited by voltage pulses to +50 mV has been studied in TASK1-expressing oocytes.

[5] = biological target: T1, human TWIK-1 K+ channel, SEQ ID NO: 2; experiment: TWIK-1 single channel activity, excised patch from Xenopus oocytes; format: cell-based; conditions: perfusion of the excised patch with 10 mM
Experimental: The pipettes were filled with a strong K+ solution (40 mM KCl, 100 mM of potassium methane sulfonate, 1.8 mM CaCl2, 2 m M MgCl2 and 5 mM HEPES adjusted to pH 7.4 with KOH). 100 µM of GdCl3 was added to the pipette solution to inhibit the action of the […]. The inside-out patches were perfused with a solution containing 140 mM KC1,10 mM CaCl2, 5 mM HEPES adjusted to pH 7.2 with KOH and 5 m M EGTA added daily. The single channel signals were filtered at 3.5 kHz and analyzed with the Biopatch program (Big-Logic, Grenoble, France).
With 3 mM of internal Mg^2+, the mean duration of opening at +80 mV is 1.9 ms and the unitary conductance is 19 +/- 1 pS (Figure 5c). At -80 mV, the channels are oscillating with a mean duration of opening of 0.3 ms, and a conductance value in creasing to 34 pS. […] In contrast to numerous channels which require the presence of ATP for their activity in the excised patch configuration, ATP is not required for the expression of TWIK-1.

[6] = read-out: inhibition of TWIK-1 currents
[7] = COS, read-out: inhibition of the TASK-2 current

Sequence of charybdotoxine (P13487 23-59 limits assumed): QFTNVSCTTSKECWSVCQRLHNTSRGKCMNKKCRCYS

Molecule: dedrotoxine (peptide)
- inhibition of TWIK-1 K+ currents (two-electrode voltage clamp, Xenopus oocytes) [1]: < 10%

Molecule: charybdotoxine (from UniProt P13487 23-59) (peptide)
- inhibition of TWIK-1 K+ currents (two-electrode voltage clamp, Xenopus oocytes) [1]: < 10%

Molecule: CC[N+](CC)(CC)CC [TEA, tetraethylammonium]
- inhibition at 20000 µM [2, 6]: 30%
- effect on TASK-2 currents ([3]; 1 mM): inactive

Molecule: CNc1ccc2oc(C[C@H]3O[C@@]4(CC[C@H]3C)O[C@H]([C@H](C)C(=O)c3ccc[nH]3)[C@H](C)C[C@H]4C)nc2c1C(=O)O [A23187]
- effect on the properties of the TWIK-1 channel [2]: without effect

Molecule: Nc1ccncc1 [4-aminopyridine]
- inhibition at 1000 µM ([2]; at 1 mM, read-out: inhibition of TWIK-1 currents): < 10%
- effect on TASK-2 currents ([3]; 100 µM): inactive

Molecule: apamin (from UniProt P01500 28-45) (peptide)
- inhibition of TWIK-1 K+ currents (two-electrode voltage clamp, Xenopus oocytes) [1]: < 10%

Molecule: CC1(C)Oc2ccc(C#N)cc2C(N2CCCC2=O)C1O (stereo not shown) [cromakaline]
- sensitivity of the TWIK-1 channel to K+ channel opener ([2]; 140 µM): not sensitive

Molecule: CC(C)Cn1c(=O)n(C)c(=O)c2[nH]cnc21 [IBMX]
- sensitivity of TASK1 currents ([4]; IBMX 1 mM perfused together with forskolin 10 µM, activation of adenyl cyclase): insensitive
- sensitivity of TASK-2 currents ([3]; IBMX 1 mM in a cocktail with forskolin 10 µM, increasing intracellular cAMP): insensitive

Molecule: C=C[C@H]1C[N@@]2CC[C@H]1C[C@@H]2[C@@H](O)c1ccnc2ccc(OC)cc12 [quinidine]
- inhibition at 100 µM [4]: < 20%

Molecule: Nc1ncnc2c1nc(Cl)n2[C@@H]1O[C@@H]2COP(=O)(O)O[C@H]2[C@H]1O [8-Cl-AMPc, 8-chloro cAMP]
- effect on the activity of TWIK-1 ([2]; 300 µM, activation of protein kinase A): does not affect
- sensitivity of TASK-2 currents ([3]; perfusion of 500 µM): insensitive

Molecule: CCN(CC)CCCC(C)Nc1c2ccc(Cl)cc2nc2ccc(OC)cc12 (stereo not shown) [quinacrine]
- inhibition at 100 µM [4]: < 20%

Molecule: C1CCC2(C1)C1CN(CC3CC3)CC2CN(CC2CC2)C1 [tedisamil]
- inhibition at 100 µM ([2]; at 100 µM, read-out: inhibition of TWIK-1 currents): 30%

Molecule: CCCCc1oc2ccccc2c1C(=O)c1cc(I)c(OCCN(CC)CC)c(I)c1 [amiodarone]
- inhibition at 100 µM [2, 6]: < 10%

Molecule: CCCCC/C=C\C/C=C\C/C=C\C/C=C\CCCC(=O)O [arachidonic acid]
- sensitivity of TASK-2 ([3]; 10 µM): not sensitive

Molecule: CCCCN1CCCCC1C(=O)Nc1c(C)cccc1C (stereo not shown) [bupivacaïne]
- inhibition at 1000 µM ([3]; COS, 1 mM, n = 4, read-out: inhibition of the TASK-2 current): 80.9%

Molecule: CC(N/C(=N\C#N)Nc1ccncc1)C(C)(C)C (stereo not shown) [pinacidil]
- sensitivity of the TWIK-1 channel to K+ channel opener ([2]; 100 µM): not sensitive

Molecule: C=C[C@H]1C[N@@]2CC[C@H]1C[C@H]2[C@H](O)c1ccnc2ccc(OC)cc12 [quinine]
- inhibition at 100 µM [4]: < 20%
- IC50 [3]: 22.4 ± 1.8 µM
- inhibition at 100 µM [3, 7]: 65 ± 3.8%

Molecule: COc1ccc(Cl)cc1C(=O)NCCc1ccc(S(=O)(=O)NC(=O)NC2CCCCC2)cc1 [glibenclamide]
- inhibition at 30 µM [2]: < 10%

Molecule: Nc1ncnc2c1ncn2[C@@H]1O[C@H](COP(=O)(O)OP(=O)(O)OP(=O)(O)O)[C@@H](O)[C@H]1O [ATP]
- effect on the activity of the TWIK-1 channel [5]: does not induce any effect

Molecule: O=P(O)(O)O[C@@H]1[C@H](O)[C@H](O)[C@@H](OP(=O)(O)O)[C@H](OP(=O)(O)O)[C@H]1O [inositol triphosphate]
- sensitivity of TASK1 currents ([4]; injection of 1 mM, internal Ca2+ change): insensitive

Molecule: CCCCCCCCCC(=O)O[C@@H]1[C@@H](C)[C@@]2(O)[C@@H](C=C(CO)C[C@@]3(O)C(=O)C(C)=C[C@@H]23)[C@@H]2C(C)(C)[C@]12OC(=O)CCCCCCCCC [PDA, 4α-phorbol-12, 13 didecanoate]
- effect on TWIK-1 currents [2]: no effect

Molecule: O=[N+]([O-])c1ccc(O)c([N+](=O)[O-])c1 [DNP, dinitrophenol]
- inhibition at 1000 µM ([2]; DNP 1 mM, intracellular acidification, % of the control amplitude, read-out: reduction in the TWIK-1 currents): 80%

Molecule: CCN(CC)CC(=O)Nc1c(C)cccc1C [lidocaine]
- inhibition at 1000 µM [3, 7]: 60.4 ± 1.5%

Molecule: CCCCCCC[N+](CC)(CC)CCCCc1ccc(Cl)cc1 [clofilium]
- inhibition at 30 µM [2]: < 10%

Molecule: O=C(O)CN(CCOCCOCCN(CC(=O)O)CC(=O)O)CC(=O)O [EGTA]
- sensitivity of TASK1 currents ([4]; injection of 100 mM, internal Ca2+ change): insensitive
